Measured values from PMC9598367, “Discovery and Preliminary Structure-Activity Investigation of 3-Substituted-1H-imidazol-5-yl-1H-indoles with In Vitro Activity towards Methicillin-Resistant Staphylococcus aureus” (Antibiotics, 2022).
≈ marks a conversion by molar mass, not a printed value. Entries after “also recorded” stand apart in the source; their conditions may differ.

Tests used:
[1] = tested on: Staphylococcus aureus ATCC43300 (MRSA); assay: MIC, MRSA ATCC43300 (CO-ADD protocol); type: cell-based; conditions: for MIC: Staphylococcus aureus, Staphylococcus aureus ATCC43300 (MRSA), mean (n = 2), read-out: MIC (µg/mL) MRSA; for anti-MRSA activity (in words): result in words
Excerpt: Additional antimicrobial evaluation against Staphylococcus aureus MRSA (ATCC43300), Pseudomonas aeruginosa (ATCC27853), Escherichia coli (ATCC25922), Klebsiella pneumoniae (ATCC700603), Acinetobacter baumannii (ATCC19606), Candida albicans (ATCC90028), and Cryptococcus neoformans (ATCC208821) was undertaken at the Community for Open Antimicrobial Drug Discovery at The University of Queensland (Australia) according to their standard protocols. For antimicrobial assays, the tested strains were cultured in either Luria broth (LB) (In Vitro Technologies, USB75852, Noble Park North, Australia), nutrient broth (NB) (Becton Dickson, 234000, Macquarie Park, Australia), or cation-adjusted MHB at 37 °C overnight. A sample of culture was then diluted 40-fold in fresh MHB and incubated at 37 °C for 1.5−2 h. The compounds were serially diluted 2-fold across the wells of 96-well plates (Corning 3641, Tewksbury, MA, USA, nonbinding surface), with compound concentrations ranging from 0.015 to 64 μg/mL, plated in duplicate. The resultant mid log phase cultures were diluted to the final concentration of 1 × 10^6 CFU/mL; then, 50 μL was added to each well of the compound containing plates giving a final compound concentration range of 0.008 to 32 μg/mL and a cell density of 5 × 10^5 CFU/mL. All plates were then covered and incubated at 37 °C for 18 h. Resazurin was added at 0.001% final concentration to each well and incubated for 2 h before MICs were read by eye.
(§1) Colistin and vancomycin were used as positive bacterial inhibitor standards for Gram-negative and Gram-positive bacteria, respectively. Fluconazole was used as a positive fungal inhibitor standard for C. albicans and C. neoformans. The antibiotics were provided in 4 concentrations, with 2 above and 2 below its MIC value, and plated into the first 8 wells of column 23 of the 384-well NBS plates. The quality control (QC) of the assays was determined by the antimicrobial controls and the Z′-factor (using positive and negative controls).

[2] = tested on: Cryptococcus neoformans ATCC208821; assay: Antifungal MIC, C. neoformans; type: cell-based; conditions: for MIC: Cryptococcus neoformans ATCC208821, mean (n = 2); for antifungal activity towards C. neoformans (in words): result in words
Experimental: For the antifungal assay, fungi strains were cultured for 3 days on yeast extract-peptone dextrose (YPD) agar at 30 °C. A yeast suspension of 1 × 10^6 to 5 × 10^6 CFU/mL was prepared from five colonies. These stock suspensions were diluted with yeast nitrogen base (YNB) (Becton Dickinson, 233520) broth to a final concentration of 2.5 × 10^3 CFU/mL. The compounds were serially diluted 2-fold across the wells of 96-well plates (Corning 3641, nonbinding surface), with compound concentrations ranging from 0.015 to 64 μg/mL and final volumes of 50 μL, plated in duplicate. Then, 50 μL of the fungi suspension that was previously prepared in YNB broth to the final concentration of 2.5 × 10^3 CFU/mL was added to each well of the compound-containing plates, giving a final compound concentration range of 0.008 to 32 μg/mL. Plates were covered and incubated at 35 °C for 36 h without shaking. C. albicans MICs were determined by measuring the absorbance at OD530. For C. neoformans, resazurin was added at 0.006% final concentration to each well and incubated for a further 3 h before MICs were determined by measuring the absorbance at OD570–600.
as §1

[3] = tested on: Staphylococcus aureus ATCC25923; assay: MIC by broth dilution, S. aureus ATCC25923; type: cell-based; conditions: for MIC: Staphylococcus aureus ATCC25923, mean (n = 3)
Experimental: The susceptibility of S. aureus (ATCC25923) to antibiotics and compounds was determined in microplates using the standard broth dilution method in accordance with the recommendations of the Comité de l’AntibioGramme de la Société Française de Microbiologie (CA-SFM) as previously described. Briefly, the minimal inhibitory concentrations (MICs) were determined with an inoculum of 10^5 CFU in 200 µL of Mueller-Hinton broth (MHB) containing two-fold serial dilutions of each drug. […] To determine all MICs, the measurements were independently repeated in triplicate.

human red blood cells = assay: Hemolytic assay; type: cell-based; conditions: for HC10: concentration at 10% hemolytic activity on human red blood cells, mean (n = 2); for hemolytic activity (in words): human red blood cells, result in words
Experimental: Human whole blood was washed three times with 3 volumes of 0.9% NaCl and then resuspended in same to a concentration of 0.5 × 10^8 cells/mL, as determined by manual cell count in a Neubauer hemocytometer. The washed cells were then added to the 384-well compound-containing plates for a final volume of 50 μL. After a 10 min shake on a plate shaker the plates were then incubated for 1 h at 37 °C. After incubation, the plates were centrifuged at 1000 g for 10 min to pellet cells and debris, 25 μL of the supernatant was then transferred to a polystyrene 384-well assay plate. Hemolysis was determined by measuring the supernatant absorbance at […] (OD405). The absorbance was measured using a Tecan M1000 Pro monochromator plate reader. HC10 and HC50 (concentration at 10% and 50% hemolysis, respectively) were calculated by curve fitting the inhibition values vs. log(concentration) using a sigmoidal dose–response function with variable fitting values for top, bottom and slope.

[4] = tested on: HEK293 human embryonic kidney cells; assay: HEK293 cytotoxicity assay (resazurin); type: cell-based; conditions: HEK293; result in words
Experimental: (§2) For the HEK293 cytotoxicity assay, cells were counted manually in a Neubauer hemocytometer and plated at a density of 5000 cells/well into each well of the 384-well plates containing the 25× (2 μL) concentrated compounds. The medium used was Dulbecco’s modified eagle medium (DMEM) supplemented with 10% fetal bovine serum (FBS). Cells were incubated together with the compounds for 20 h at 37 °C, 5% CO2. To measure cytotoxicity, 5 μL (equals 100 μM final) of resazurin was added to each well after incubation, and incubated for further 3 h at 37 °C with 5% CO2. After final incubation fluorescence intensity was measured as Fex 560/10 nm, em 590/10 nm (F560/590) using a Tecan M1000 Pro monochromator plate reader. CC50 values (concentration at 50% cytotoxicity) were calculated by normalizing the fluorescence readout, with 74 μg/mL tamoxifen as negative control (0%) and normal cell growth as positive control (100%). The concentration-dependent percentage cytotoxicity was fitted to a dose response function (using Pipeline Pilot) and CC50 values determined.

[5] = HEK293 cytotoxicity assay (resazurin); type: cell-based, human; conditions: human; concentration at 50% cytotoxicity on HEK293 cells; mean (n = 2)
Experimental: as §2

S. aureus (ATCC25923) = assay: Membrane depolarization assay, DiSC3(5); type: cell-based, Staphylococcus aureus; conditions: preliminary investigation; result in words
Experimental: S. aureus (ATCC25923) was grown in MH II broth for 24 h at 37 °C. After reaching an OD600 nm of 0.5, cells were centrifuged (3600× g for 20 min at 20 °C) and washed twice with buffered sucrose solution (250 mM), magnesium sulfate solution (25 mM) and Hepes (5 mM) (pH = 7.2). The fluorescent dye […] DiSC3(5) was added to a final concentration of 5 µM and was incubated with the suspensions for 5 min at 37 °C to allow the dye incorporation into the polarized membranes. 10 µL of compound was then added to 90 µL of the fluorescent suspensions at different concentrations ranging from 200 µM to 25 µM. Fluorescence measurements were recorded for 20 minutes (excitation wavelength 622 nm, emission wavelength 690 nm).
The difference in the relative fluorescence values (RFU) from the control containing only buffer and the control containing bacteria treated only with cetyltrimethylammonium bromide ([…]) is taken as the maximum level of depolarization. Assays were performed in three independent experiments. Blank determined by using no compound. Maximum RFU determined by using CTAB 0.1%
Equation used: (RFU of the compound−RFU of the blank)×100/RFU of the maximum

| SMILES | melting point [°C] | MIC [1] [µg/mL] | MIC [2] [µg/mL] | MIC [3] [µg/mL] | antifungal activity towards C. neoformans (in words) [2] | HC10 (human red blood cells) [µg/mL] | hemolytic activity (in words) (human red blood cells) | cytotoxicity (in words) [4] | CC50 at 20 h [5] [µg/mL] | anti-MRSA activity (in words) [1] | membrane depolarization of S. aureus (S. aureus (ATCC25923)) | activity against S. aureus (in words) ([3]; result in words) |
| --- | --- | --- | --- | --- | --- | --- | --- | --- | --- | --- | --- | --- |
| Brc1ccc2[nH]cc(-c3cncn3Cc3ccc(I)cc3)c2c1 [Compound 9, 5-Bromo-3-(1-(4-iodobenzyl)-1H-imidazol-5-yl)-1H-indole] | > 200 | 16 (≈ 33.5 µM) | 16 (≈ 33.5 µM) | > 200 | – | >32 | – | – | 5.1 (≈ 10.7 µM) | – | – | – |
| c1ccc(-c2cncn2Cc2c[nH]c3ccccc23)cc1 [Compound 111, 3-((5-Phenyl-1H-imidazol-1-yl)methyl)-1H-indole] | 57 to 58 | 16 (≈ 58.5 µM) | ≤ 0.25 | 50 (≈ 183 µM) | non-toxic selective antifungals | >32 | lack of cytotoxicity and hemolytic activity | lack of cytotoxicity and hemolytic activity | > 32 | – | – | – |
| Fc1ccc2c(-c3cncn3Cc3ccc(I)cc3)c[nH]c2c1 [Compound 6, 6-Fluoro-3-(1-(4-iodobenzyl)-1H-imidazol-5-yl)-1H-indole] | 191 to 192 | > 32 | 32 (≈ 76.7 µM) | 6.25 (≈ 15 µM) | – | >32 | – | – | 15.6 (≈ 37.4 µM) | – | only very weak membrane depolarization | strong activity |
| Clc1ccc2[nH]cc(-c3cncn3CCc3ccccc3)c2c1 [Compound 19, 5-Chloro-3-(1-phenethyl-1H-imidazol-5-yl)-1H-indole] | > 200 | 16 (≈ 49.7 µM) | > 32 | 12.5 (≈ 38.8 µM) | – | >32 | – | – | 17.3 (≈ 53.8 µM) | – | – | – |

Now from value to molecule, other results behind:

| melting point [°C] | MIC [1] [µg/mL] | MIC [2] [µg/mL] | MIC [3] [µg/mL] | SMILES | antifungal activity towards C. neoformans (in words) [2] | HC10 (human red blood cells) [µg/mL] | hemolytic activity (in words) (human red blood cells) | cytotoxicity (in words) [4] | CC50 at 20 h [5] [µg/mL] | anti-MRSA activity (in words) [1] | membrane depolarization of S. aureus (S. aureus (ATCC25923)) | activity against S. aureus (in words) ([3]; result in words) |
| --- | --- | --- | --- | --- | --- | --- | --- | --- | --- | --- | --- | --- |
| 48 to 49 | > 32 | ≤ 0.25 | > 200 | COc1ccc2c(-c3cncn3CCc3ccccc3)c[nH]c2c1 [Compound 57, 6-Methoxy-3-(1-phenethyl-1H-imidazol-5-yl)-1H-indole] | non-toxic selective antifungals | >32 | lack of cytotoxicity and hemolytic activity | lack of cytotoxicity and hemolytic activity | > 32 | – | – | – |
| – | ≤ 0.25 | > 32 | > 200 | COc1ccc(CCn2cncc2-c2c[nH]c3ccc(Cl)cc23)cc1 [Compound 26, 5-Chloro-3-(1-(4-methoxyphenethyl)-1H-imidazol-5-yl)-1H-indole] | – | >32 | lacked cytotoxic or hemolytic properties | lack of cytotoxicity; also recorded: lacked cytotoxic or hemolytic properties | > 32 | promising non-toxic selective anti-MRSA compounds | – | – |
| – | – | > 32 | 100 (≈ 262 µM) | COc1ccc(OC)c(CCn2cncc2-c2c[nH]c3ccc(Cl)cc23)c1 [Compound 32, 5-Chloro-3-(1-(2,5-dimethoxyphenethyl)-1H-imidazol-5-yl)-1H-indole] | – | >32 | lacked cytotoxic or hemolytic properties | lack of cytotoxicity; also recorded: lacked cytotoxic or hemolytic properties | > 32 | promising non-toxic selective anti-MRSA compounds | – | – |
| 184 to 185 | 32 (≈ 80.7 µM) | 32 (≈ 80.7 µM) | 12.5 (≈ 31.5 µM) | COc1ccc(CCn2cncc2-c2c[nH]c3cc(Br)ccc23)cc1 [Compound 28, 6-Bromo-3-(1-(4-methoxyphenethyl)-1H-imidazol-5-yl)-1H-indole] | – | >32 | – | – | 15.6 (≈ 39.4 µM) | – | – | – |
